From patent US5438052A, “Cephalosporin derivatives” (Hoffmann-La Roche Inc., priority 1991, dated 1995)
In brackets after ≈: the same amount, converted by molar mass. Where a name gives a salt, the structure may show the parent alone. Read-outs that look alike come from different tables or passages of the source.

Experiments:
C. freundii 902 = assay: Minimum inhibitory concentration in vitro, agar dilution method; format: cell-based; settings: Citrobacter freundii
Text: (§1) 1. Minimum Inhibitory Concentration in vitro
(§2) The activities ascertained, minimum inhibitory concentration (MIC) in μg/ml, are compiled in Table 1 hereinafter: […]

E. aerogenes CF153 = assay: as above; format: cell-based; settings: Klebsiella aerogenes
Text: as §1, §2

E. cloacae 908R = assay: as above; format: cell-based; settings: Enterobacter cloacae
Text: as §1, §2

E. cloacae 908SSi = assay: as above; format: cell-based; settings: Enterobacter cloacae
Text: as §1, §2

E. cloacae P99 = assay: as above; format: cell-based; settings: Enterobacter cloacae
Text: as §1, §2

E. coli 25922 [1] = assay: as above; format: cell-based; settings: Escherichia coli
Text: as §1, §2

K. oxytoca 1082 = assay: as above; format: cell-based; settings: Klebsiella oxytoca
Text: as §1, §2

K. pneumoniae 418 = assay: as above; format: cell-based; settings: Klebsiella pneumoniae
Text: as §1, §2

P. aeruginosa 27853 = assay: as above; format: cell-based; settings: Pseudomonas aeruginosa
Text: as §1, §2

P. aeruginosa 799/61 = assay: as above; format: cell-based; settings: Pseudomonas aeruginosa
Text: as §1, §2

P. aeruginosa 799/WT = assay: as above; format: cell-based; settings: Pseudomonas aeruginosa
Text: as §1, §2

P. aeruginosa BA = assay: as above; format: cell-based; settings: Pseudomonas aeruginosa
Text: as §1, §2

P. aeruginosa MK1184 = assay: as above; format: cell-based; settings: Pseudomonas aeruginosa
Text: as §1, §2

P. mirabilis 2117 = assay: as above; format: cell-based; settings: Proteus mirabilis
Text: as §1, §2

P. vulgaris 1028 = assay: as above; format: cell-based; settings: Proteus vulgaris
Text: as §1, §2

S. aureus 6538 = assay: as above; format: cell-based; settings: Staphylococcus aureus
Text: as §1, §2

S. marcescens 69438 = assay: as above; format: cell-based; settings: Serratia marcescens
Text: as §1, §2

S. pyogenes 15 = assay: as above; format: cell-based; settings: Streptococcus pyogenes
Text: as §1, §2

E. coli 25922 [2] = assay: Experimental systemic septicaemia in the mouse; format: in vivo; settings: 96 h
Protocol: (§3) 2. Experimental systemic septicaemia in the mouse
(§4) An experimental systemic septicaemia was produced in albino mice weighing 16-20 g by intraperitoneally injecting into the experimental animals a sample of a dilute culture of the test organism which had been grown overnight. The sample administered is calculated such that the dosage administered is about 5-100 times greater than the dosage which is required to kill 50% of untreated experimental animals within 48 hours. The bacteria were injected as a suspension in the culture broth. Groups of 5 experimental animals each were used not only for the control, but also for the treatment for each dosage tested. The products in accordance with the invention were administered subcutaneously as a suspension in Tween 80 (2%), whereby the concentrations were chosen such that each experimental animal received 500 μl per administration. The respective concentrations were administered twice, namely 1 and 3 hours after the infection (in the case of P. aeruginosa three times, namely 1, 3 and 5 hours after the infection). The ED50 is that dosage which protects 50% of the experimental animals and was calculated by means of the Probit method on the basis of the survial rate after 4 days following the infection. The ED50 values in mg/kg s.c. (subcutaneous) for representatives of the class of substance in accordance with the invention are given in Table 2 hereinafter.

[3] = tested on: Pseudomonas aeruginosa BA; assay: Experimental systemic septicaemia in the mouse; format: in vivo; settings: sc, 96 h
Protocol: as §3, §4

[4] = C. freundii 902, agar dilution, read-out: MIC
[5] = E. aerogenes CF153, agar dilution, read-out: MIC
[6] = E. cloacae 908R, agar dilution, read-out: MIC
[7] = E. cloacae 908SSi, agar dilution, read-out: MIC
[8] = E. coli 25922, agar dilution, read-out: MIC
[9] = K. oxytoca 1082, agar dilution, read-out: MIC
[10] = K. pneumoniae 418, agar dilution, read-out: MIC
[11] = P. aeruginosa 27853, agar dilution, read-out: MIC
[12] = P. aeruginosa 799/61, agar dilution, read-out: MIC
[13] = P. aeruginosa 799/WT, agar dilution, read-out: MIC
[14] = P. aeruginosa BA, agar dilution, read-out: MIC
[15] = P. aeruginosa MK1184, agar dilution, read-out: MIC
[16] = P. mirabilis 2117, agar dilution, read-out: MIC
[17] = P. vulgaris 1028, agar dilution, read-out: MIC
[18] = S. aureus 6538, agar dilution, read-out: MIC
[19] = S. marcescens 69438, agar dilution, read-out: MIC
[20] = S. pyogenes 15, agar dilution, read-out: MIC
[21] = Escherichia coli, sc, E. coli 25922, albino mice, s.c. 1 and 3 hours after infection, survival after 4 days, read-out: ED50

SMILES: Cc1cc(SCC2=C(C(=O)[O-])N3C(=O)[C@@H](NC(=O)/C(=N\OCc4nc(=O)c(O)c[nH]4)c4csc(N)n4)[C@H]3SC2)n2nc(COC(=O)c3ccc(O)c(O)c3)nc2n1.[Na+] [Example 6, (6R,7R)-7-[(Z)-2-(2-amino-4-thiazolyl)-2-[[(1,4-dihydro-5-hydroxy-4-oxo-2-pyrimidinyl)methoxy]imino]acetamido]-3-[[[2-[[(3,4-dihydroxybenzoyl)oxy]methyl]-5-methyl-s-triazolo[1,5-a]pyrimidin-7-yl]thio]methyl]-8-oxo-5-thia-1-azabicyclo[4.2.0]oct-2-ene-2-carboxylic acid sodium salt (1:1)]
- MIC (C. freundii 902; 902): < 0.1 µg/mL
- MIC (E. aerogenes CF153; CF153): < 0.1 µg/mL
- MIC (E. cloacae 908R; 908R): 0.12 µg/mL
- MIC (E. cloacae 908SSi; 908SSI): 4 µg/mL
- MIC (E. cloacae P99): 4 µg/mL
- MIC (E. coli 25922 [1]; 25922): < 0.1 µg/mL
- MIC (K. oxytoca 1082; 1082): 0.12 µg/mL
- MIC (K. pneumoniae 418; 418): < 0.1 µg/mL
- MIC (P. aeruginosa 27853; 27853): < 0.1 µg/mL
- MIC (P. aeruginosa 799/61; 799/61): < 0.1 µg/mL
- MIC (P. aeruginosa 799/WT; 799/WT): < 0.1 µg/mL
- MIC (P. aeruginosa BA): < 0.1 µg/mL
- MIC (P. aeruginosa MK1184; MK1184): < 0.1 µg/mL
- MIC (P. mirabilis 2117; 2117): 0.25 µg/mL
- MIC (P. vulgaris 1028; 1028): < 0.1 µg/mL
- MIC (S. aureus 6538; 6538): 16 µg/mL
- MIC (S. marcescens 69438; 69438): 0.12 µg/mL
- MIC (S. pyogenes 15; 15): 2 µg/mL
- ED50 (E. coli 25922 [2]; Escherichia coli, 25922, sc): < 0.2 mg/kg
- ED50 [3]: 0.3 mg/kg

SMILES: Cc1cc(SCC2=C(C(=O)O)N3C(=O)[C@@H](NC(=O)/C(=N\OCc4nc(=O)c(O)c[nH]4)c4csc(N)n4)[C@H]3SC2)n2nc(CNS(=O)(=O)c3ccc(O)c(O)c3)nc2n1 [Example 2, (6R,7R)-7-[(Z)-2-(2-amino-4-thiazolyl)-2-[[(1,4-dihydro-5-hydroxy-4-oxo-2-pyrimidinyl)methoxy]imino]acetamido]-3-[[[2-[(3,4-dihydroxybenzenesulphonamido)methyl]-5-methyl-s-triazolo[1,5-a]pyrimidinyl-7-yl]thio]methyl]-8-oxo-5-thia-1-azabicyclo[4.2.0]oct-2-ene-2-carboxylic acid sodium salt (1:1)]
- MIC (C. freundii 902; [4]): < 0.1 µg/mL
- MIC (E. aerogenes CF153; [5]): 0.5 µg/mL
- MIC (E. cloacae 908R; [6]): 1 µg/mL
- MIC (E. cloacae 908SSi; [7]): 4 µg/mL
- MIC (E. cloacae P99): 16 µg/mL
- MIC (E. coli 25922 [1]; [8]): < 0.1 µg/mL
- MIC (K. oxytoca 1082; [9]): 4 µg/mL
- MIC (K. pneumoniae 418; [10]): < 0.25 µg/mL
- MIC (P. aeruginosa 27853; [11]): < 0.1 µg/mL
- MIC (P. aeruginosa 799/61; [12]): < 0.1 µg/mL
- MIC (P. aeruginosa 799/WT; [13]): 0.12 µg/mL
- MIC (P. aeruginosa BA; [14]): < 0.1 µg/mL
- MIC (P. aeruginosa MK1184; [15]): 0.25 µg/mL
- MIC (P. mirabilis 2117; [16]): 0.25 µg/mL
- MIC (P. vulgaris 1028; [17]): 0.5 µg/mL
- MIC (S. aureus 6538; [18]): 32 µg/mL
- MIC (S. marcescens 69438; [19]): < 0.25 µg/mL
- MIC (S. pyogenes 15; [20]): 2 µg/mL
- ED50 (E. coli 25922 [2]; [21]): 0.3 mg/kg

SMILES: Nc1nc(/C(=N/OCc2ccc(O)c(O)c2F)C(=O)N[C@@H]2C(=O)N3C(C(=O)O)=C(CSc4nc(-c5ccccc5)ncc4-c4ccc(O)c(O)c4)CS[C@H]23)cs1 [Example 15]
- MIC (C. freundii 902; [4]): 0.25 µg/mL (≈ 0.306 µM)
- MIC (E. aerogenes CF153; [5]): 0.12 µg/mL (≈ 0.147 µM)
- MIC (E. cloacae 908R; [6]): 2 µg/mL (≈ 2.45 µM)
- MIC (E. cloacae 908SSi; [7]): 16 µg/mL (≈ 19.6 µM)
- MIC (E. cloacae P99): 16 µg/mL (≈ 19.6 µM)
- MIC (E. coli 25922 [1]; [8]): < 0.1 µg/mL
- MIC (K. oxytoca 1082; [9]): 0.5 µg/mL (≈ 0.611 µM)
- MIC (K. pneumoniae 418; [10]): < 0.1 µg/mL
- MIC (P. aeruginosa 27853; [11]): 1 µg/mL (≈ 1.22 µM)
- MIC (P. aeruginosa 799/61; [12]): < 0.1 µg/mL
- MIC (P. aeruginosa 799/WT; [13]): 0.5 µg/mL (≈ 0.611 µM)
- MIC (P. aeruginosa BA; [14]): 0.5 µg/mL (≈ 0.611 µM)
- MIC (P. aeruginosa MK1184; [15]): 32 µg/mL (≈ 39.1 µM)
- MIC (P. mirabilis 2117; [16]): 0.12 µg/mL (≈ 0.147 µM)
- MIC (P. vulgaris 1028; [17]): 0.5 µg/mL (≈ 0.611 µM)
- MIC (S. aureus 6538; [18]): 32 µg/mL (≈ 39.1 µM)
- MIC (S. marcescens 69438; [19]): 1 µg/mL (≈ 1.22 µM)
- MIC (S. pyogenes 15; [20]): 0.12 µg/mL (≈ 0.147 µM)
- ED50 (E. coli 25922 [2]; [21]): 0.9 mg/kg
- ED50 ([3]; P. aeruginosa BA, albino mice, s.c. 1, 3 and 5 hours after infection, survival after 4 days, read-out: ED50): > 2 mg/kg
